US11492375B2, “Cyclic peptide immunomodulators” (Bristol-Myers Squibb Company, priority 2017, dated 2022)

These molecules were tested against PD-1-Ig binding to PD-L1-TVMV-His (PD-L1-His) (Homo sapiens (Human), UniProt Q9NZQ7) (assay: PD-1/PD-L1 Homogenous Time-Resolved Fluorescence (HTRF) binding assay). Settings: PD-1-Ig/PD-L1-His binding; numeric value; read-out: HTRF IC50 (μM) or Range.
Text: The ability of the macrocyclic peptides of the present disclosure to bind to PD-L1 was investigated using a PD-1/PD-L1 Homogenous Time-Resolved Fluorescence (HTRF) binding assay.
Homogenous Time-Resolved Fluorescence (HTRF) Assays of Binding of Soluble PD-1 to Soluble PD-L1. Soluble PD-1 and soluble PD-L1 refers to proteins with carboxyl-end truncations that remove the transmembrane-spanning regions and are fused to heterologous sequences, specifically the Fc portion of the human immunoglobuling G sequence (Ig) or the hexahistidine epitope tag (His). All binding studies were performed in an HTRF assay buffer consisting of dPBS supplemented with 0.1% (w/v) bovine serum albumin and 0.05% (v/v) Tween-20. For the PD-1-Ig/PD-L1-His binding assay, inhibitors were pre-incubated with PD-L1-His (10 nM final) for 15m in 4 μl of assay buffer, followed by addition of PD-1-Ig (20 nM final) in 1 μl of assay buffer and further incubation for 15 m. PD-L1 fusion proteins from either human, cynomologous macaques, mouse, or other species were used. HTRF detection was achieved using europium crypate-labeled anti-Ig monoclonal antibody (1 nM final) and allophycocyanin (APC) labeled anti-His monoclonal antibody (20 nM final). Antibodies were diluted in HTRF detection buffer and 5 μl was dispensed on top of binding reaction. The reaction was allowed to equilibrate for 30 minutes and signal (665 nm/620 nm ratio) was obtained using an EnVision fluorometer. Additional binding assays were established between PD-1-Ig/PD-L2-His (20 and 5 nM, respectively), CD8O-His/PD-L1-Ig (100 and 10 nM, respectively) and CD80-His/CTLA4-Ig (10 and 5 nM, respectively). Binding/competition studies between biotinylated Compound No. 71 and human PD-L1-His were performed as follows. Macrocyclic peptide inhibitors were pre-incubated with PD-L1-His (10 nM final) for 60 minutes in 4 μl of assay buffer followed by addition of biotinylated Compound No. 71 (0.5 nM final) in 1 μl of assay buffer. Binding was allowed to equilibrate for 30 minutes followed by addition of europium crypated labeled Streptavidin (2.5 pM final) and APC-labeled anti-His (20 nM final) in 5 μl of HTRF buffer. The reaction was allowed to equilibrate for 30 m and signal (665 nm/620 nm ratio) was obtained using an EnVision fluorometer.
Recombinant Proteins. Carboxyl-truncated human PD-1 (amino acids 25-167) with a C-terminal human Ig epitope tag [hPD-1 (25-167)-35-IG] and human PD-L1 (amino acids 18-239) with a C-terminal His epitope tag [hPD-L1(19-239)-tobacco vein mottling virus protease cleavage site (TVMV)-His] were expressed in HEK293T cells and purified sequentially by recombinant Protein A affinity chromatography and size exclusion chromatography. Human PD-L2-His (Sino Biologicals), CD80-His (Sino Biologicals), CTLA4-Ig (RnD Systems) were all obtained through commercial sources.

PD-1-Ig binding to PD-L1-TVMV-His (PD-L1-His), sequence (Q9NZQ7 other isoform, or with tags, fused parts or gaps): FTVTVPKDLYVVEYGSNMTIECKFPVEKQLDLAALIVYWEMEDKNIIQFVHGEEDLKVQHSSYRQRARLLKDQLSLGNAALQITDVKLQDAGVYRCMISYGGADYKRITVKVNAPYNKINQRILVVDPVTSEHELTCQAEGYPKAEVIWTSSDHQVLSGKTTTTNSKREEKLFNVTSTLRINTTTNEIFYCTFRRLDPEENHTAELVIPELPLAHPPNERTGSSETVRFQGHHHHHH

| IC50 [µM] | Compound |
| --- | --- |
| 1.5 | CC(C)C[C@@H]1NC(=O)[C@H](CN)NC(=O)[C@@H]2CCCN2C(=O)[C@H](CC(N)=O)NC(=O)[C@H](C)N(C)C(=O)[C@H](Cc2ccc(O)cc2)NC(=O)CSC[C@H](C(=O)NCC(N)=O)NC(=O)[C@@H](C)NC(=O)[C@H]2CC/C=C\CC[C@@H](C(=O)N2C)N(C)C(=O)[C@H](Cc2c[nH]c3ccccc23)NC(=O)[C@H](CO)NC(=O)[C@@H](Cc2c[nH]c3ccccc23)NC(=O)[C@@H]2C[C@@H](O)CN2C1=O [Example 1103] |

Same assay, conditions: PD-1-Ig/PD-L1-His binding; value given as range class; read-out: HTRF IC50 (μM) or Range

| Compound | IC50 [µM] |
| --- | --- |
| CC(C)C[C@@H]1NC(=O)[C@H](Cc2cnc[nH]2)NC(=O)[C@@H]2CCCN2C(=O)[C@H](CC(N)=O)NC(=O)[C@H](C)N(C)C(=O)[C@H](Cc2ccc(O)cc2)NC(=O)CSC[C@@H](C(=O)NCC(N)=O)NC(=O)[C@H](CCCNC(=N)N)NC(=O)[C@@H]2CCC/C=C\CCC[C@@H](C(=O)N2C)N(C)C(=O)[C@H](Cc2c[nH]c3ccccc23)NC(=O)[C@H](CO)NC(=O)[C@H](Cc2c[nH]c3ccccc23)NC(=O)[C@@H]2C[C@@H](O)CN2C1=O [Example 1101] | 0.1 to 2 |
| CC(C)C[C@@H]1NC(=O)[C@H](Cc2cnc[nH]2)NC(=O)[C@@H]2CCCN2C(=O)[C@H](CC(N)=O)NC(=O)[C@H](C)N(C)C(=O)[C@H](Cc2ccc(O)cc2)NC(=O)CSC[C@@H](C(=O)NCC(N)=O)NC(=O)[C@H](CCCNC(=N)N)NC(=O)[C@@H]2CC/C=C\CC[C@@H](C(=O)N2C)N(C)C(=O)[C@H](Cc2c[nH]c3ccccc23)NC(=O)[C@H](CO)NC(=O)[C@H](Cc2c[nH]c3ccccc23)NC(=O)[C@@H]2C[C@@H](O)CN2C1=O [Example 1102] | 0.1 to 2 |
| CC(C)C[C@@H]1NC(=O)[C@H](Cc2cnc[nH]2)NC(=O)[C@@H]2CCCN2C(=O)[C@H](CC(N)=O)NC(=O)[C@@H]2COCCN2C(=O)[C@H](Cc2ccc(O)cc2)NC(=O)CSC[C@H](C(=O)NCC(N)=O)NC(=O)[C@@H](C)NC(=O)C2CCC/C=C\CCC[C@@H](C(=O)N2C)N(C)C(=O)[C@H](Cc2c[nH]c3ccccc23)NC(=O)[C@H](CO)NC(=O)[C@@H](Cc2c[nH]c3ccccc23)NC(=O)[C@@H]2C[C@@H](O)CN2C1=O [Example 1105] | 0.1 to 2 |
| CC(C)C[C@@H]1NC(=O)[C@H](CN)NC(=O)[C@@H]2CCCN2C(=O)[C@H](CC(N)=O)NC(=O)[C@H](C)N(C)C(=O)[C@H](Cc2ccc(O)cc2)NC(=O)CSC[C@H](C(=O)NCC(N)=O)NC(=O)[C@@H](C)NC(=O)[C@H]2CCC/C=C\CCC[C@@H](C(=O)N2C)N(C)C(=O)[C@H](Cc2c[nH]c3ccccc23)NC(=O)[C@H](CO)NC(=O)[C@@H](Cc2c[nH]c3ccccc23)NC(=O)[C@@H]2C[C@@H](O)CN2C1=O [Example 1106] | 0.1 to 2 |
| CC(C)C[C@@H]1NC(=O)[C@H](Cc2c[nH]cn2)NC(=O)[C@@H]2CCCN2C(=O)[C@H](CC(N)=O)NC(=O)[C@@H]2COCCN2C(=O)[C@H](Cc2ccc(O)cc2)NC(=O)CSC[C@H](C(=O)NCC(N)=O)NC(=O)[C@@H](C)NC(=O)[C@@H]2CCC/C=C\CCC[C@@H](C(=O)N2C)N(C)C(=O)[C@H](Cc2c[nH]c3ccccc23)NC(=O)[C@H](CO)NC(=O)[C@@H](Cc2c[nH]c3ccccc23)NC(=O)[C@@H]2C[C@@H](O)CN2C1=O [Example 1110] | 0.01 to 0.099 |

Now from value to molecule:

| IC50 [µM] | Compound |
| --- | --- |
| 0.01 to 0.099 | CC(C)C[C@@H]1NC(=O)[C@H](Cc2cnc[nH]2)NC(=O)[C@@H]2CCCN2C(=O)[C@H](CC(N)=O)NC(=O)[C@H](C)N(C)C(=O)[C@H](Cc2ccccc2)NC(=O)CSC[C@@H](C(=O)NCC(N)=O)NC(=O)[C@H](CCCNC(=N)N)NC(=O)[C@@H]2CCCC/C=C/CCCC[C@@H](C(=O)N2C)N(C)C(=O)[C@H](Cc2c[nH]c3ccccc23)NC(=O)[C@H](CO)NC(=O)[C@H](Cc2c[nH]c3ccccc23)NC(=O)CN(C)C1=O [Example 1001] |
| 0.01 to 0.099 | CC(C)C[C@@H]1NC(=O)[C@H](Cc2cnc[nH]2)NC(=O)[C@@H]2CCCN2C(=O)[C@H](CC(N)=O)NC(=O)[C@H](C)N(C)C(=O)[C@H](Cc2ccccc2)NC(=O)CSC[C@@H](C(=O)NCC(N)=O)NC(=O)[C@H](CCCNC(=N)N)NC(=O)[C@@H]2CCCCC/C=C/CCCCC[C@@H](C(=O)N2C)N(C)C(=O)[C@H](Cc2c[nH]c3ccccc23)NC(=O)[C@H](CO)NC(=O)[C@H](Cc2c[nH]c3ccccc23)NC(=O)CN(C)C1=O [Example 1002] |
| 0.01 to 0.099 | CC(C)C[C@@H]1NC(=O)[C@H](Cc2cnc[nH]2)NC(=O)[C@@H]2CCCN2C(=O)[C@H](CC(N)=O)NC(=O)[C@H](C)N(C)C(=O)[C@H](Cc2ccccc2)NC(=O)CSC[C@@H](C(=O)NCC(N)=O)NC(=O)[C@H](CCCNC(=N)N)NC(=O)[C@@H]2CCCC/C=C\CCCC[C@@H](C(=O)N2C)N(C)C(=O)[C@H](Cc2c[nH]c3ccccc23)NC(=O)[C@H](CO)NC(=O)[C@H](Cc2c[nH]c3ccccc23)NC(=O)CN(C)C1=O [Example 1100] |
| 0.01 to 0.099 | CC(C)C[C@@H]1NC(=O)[C@H](CN)NC(=O)[C@@H]2CCCN2C(=O)[C@H](CC(N)=O)NC(=O)[C@H](C)N(C)C(=O)[C@H](Cc2ccc(O)cc2)NC(=O)CSC[C@H](C(=O)NCC(N)=O)NC(=O)[C@@H](CCCN)NC(=O)[C@H]2CCC/C=C\CCC[C@@H](C(=O)N2C)N(C)C(=O)[C@H](Cc2c[nH]c3ccccc23)NC(=O)[C@H](CO)NC(=O)[C@@H](Cc2c[nH]c3ccccc23)NC(=O)[C@@H]2C[C@@H](O)CN2C1=O [Example 1104] |
| 0.01 to 0.099 | CC(C)C[C@@H]1NC(=O)[C@H](CN)NC(=O)[C@@H]2CCCN2C(=O)[C@H](CC(N)=O)NC(=O)[C@H](C)N(C)C(=O)[C@H](Cc2ccc(O)cc2)NC(=O)CSC[C@@H](C(N)=O)NC(=O)[C@H](CCCNC(=N)N)NC(=O)[C@@H]2CCCC/C=C\CCCC[C@@H](C(=O)N2C)N(C)C(=O)[C@H](Cc2c[nH]c3ccccc23)NC(=O)[C@H](CO)NC(=O)[C@H](Cc2c[nH]c3ccccc23)NC(=O)[C@@H]2C[C@@H](O)CN2C1=O [Example 1107] |
| 0.002 to 0.0099 | C[C@H]1C(=O)N[C@@H](CC(=O)O)C(=O)N2CCC[C@H]2C(=O)N[C@@H](CN)C(=O)N[C@@H](CCC(=O)O)C(=O)N2C[C@H](O)C[C@H]2C(=O)N[C@@H](Cc2c[nH]c3ccccc23)C(=O)N[C@@H](CO)C(=O)N[C@@H](Cc2c[nH]c3ccccc23)C(=O)N(C)[C@H]2CCCC/C=C\CCCC[C@@H](C(=O)N[C@@H](CCC(=O)O)C(=O)N[C@H](C(N)=O)CSCC(=O)N[C@@H](Cc3ccc(O)cc3)C(=O)N1C)N(C)C2=O [Example 1108] |
| 0.002 to 0.0099 | CC(C)C[C@@H]1NC(=O)[C@H](CN)NC(=O)[C@@H]2CCCN2C(=O)[C@H](CC(N)=O)NC(=O)[C@H](C)N(C)C(=O)[C@H](Cc2ccc(O)cc2)NC(=O)CSC[C@H](C(=O)NCC(N)=O)NC(=O)[C@@H](CCCNC(=N)N)NC(=O)[C@@H]2CCCC/C=C\CCCC[C@@H](C(=O)N2C)N(C)C(=O)[C@H](Cc2c[nH]c3ccccc23)NC(=O)[C@H](CO)NC(=O)[C@@H](Cc2c[nH]c3ccccc23)NC(=O)[C@@H]2C[C@@H](O)CN2C1=O [Example 1109] |
| 0.002 to 0.0099 | C[C@H]1C(=O)N[C@@H](CC(=O)O)C(=O)N2CCC[C@H]2C(=O)N[C@@H](CN)C(=O)N[C@@H](CCC(=O)O)C(=O)N2C[C@H](O)C[C@H]2C(=O)N[C@@H](Cc2c[nH]c3ccccc23)C(=O)N[C@@H](CO)C(=O)N[C@@H](Cc2c[nH]c3ccccc23)C(=O)N(C)[C@H]2CCCC/C=C\CCCC[C@@H](C(=O)N[C@@H](CCC(=O)O)C(=O)N[C@H](C(=O)NCC(N)=O)CSCC(=O)N[C@@H](Cc3ccc(O)cc3)C(=O)N1C)N(C)C2=O [Example 1111] |
| 0.002 to 0.0099 | C[C@@H]1NC(=O)[C@@H]2CCCC/C=C\CCCC[C@@H](C(=O)N2C)N(C)C(=O)[C@H](Cc2c[nH]c3ccccc23)NC(=O)[C@H](CO)NC(=O)[C@H](Cc2c[nH]c3ccccc23)NC(=O)[C@@H]2C[C@@H](O)CN2C(=O)[C@H](CCC(N)=O)NC(=O)[C@H](CN)NC(=O)[C@@H]2CCCN2C(=O)[C@H](CC(=O)O)NC(=O)[C@H](C)N(C)C(=O)[C@H](Cc2ccc(O)cc2)NC(=O)CSC[C@@H](C(=O)NCC(N)=O)NC1=O [Example 1112] |
